Experimental data: paper PMC5881471, “CDK2 inhibitors as candidate therapeutics for cisplatin- and noise-induced hearing loss” (The Journal of Experimental Medicine, 2018)

Tested on: not listed separately
Assay: in vitro
Parameters: CellTiter-Glo cell viability, compound alone
Settings: mouse, hei-oc1 cells; compound alone; read-out: LD50 (μM) in HEI cells
Description: For this screen, caspase-3 cleavage was chosen as the endpoint indicating cisplatin-induced cell death, as it allowed the inhibition of cell death to be monitored at the level of any intracellular molecular target upstream of caspase-3 cleavage in the HEI-OC1 cell line ([Kalinec et al., 2003]; [Kim et al., 2010]). […] This screen has been described in detail elsewhere ([Teitz et al., 2016]). Assays were first optimized at the bench. Optimized aspects included the number of cells to be plated (1,600 cells/well), the cisplatin concentration (50 µM, based on the dose–response curve), the incubation time (22 h at 33°C in 10% CO2), and the concentration of pifithrin-α (17 µM). The Caspase-Glo 3/7 assay (Promega), which enables the measurement of light emitted as the result of caspase cleavage and is suitable for HTS, was used. The linearity of the Caspase-Glo 3/7 assay was validated, and it was verified that 0.5% DMSO had no effect on the cell death kinetics ([Hall et al., 2014]). Compound toxicity was tested by cell viability assay CellTiter-Glo (Promega) with compound alone. The Caspase-Glo 3/7 assay was then tested for reproducibility in the St. Jude robotic systems in 384-well plates (white, solid-bottom, tissue culture–treated, polystyrene plates; Corning). By using a pin tool, test compounds dissolved in DMSO were added to the screen to a final concentration of 8 µM, and cisplatin solution in PBS was added 2 min later to each well to a final concentration of 50 µM (in <0.5% DMSO; Fig. S1 A). The cells were incubated with the test compounds and cisplatin for 22 h at 33°C in 10% CO2, with the medium being as previously described ([Kalinec et al., 2003]); no γ IFN was added to slow the cells’ growth rate and to mimic as closely as possible the conditions of postmitotic, nondividing sensory epithelial (organ of Corti) cells. The 384-well plates were shaken and centrifuged after compound addition to enhance the reprod  Figure 1. […] (A) Screening of a bioactive compound library of 4,385 unique compounds, including 845 FDA-approved drugs, in HEI-OC1 cells. Cells treated with 50 µM cisplatin (red dots) were assigned 100% caspase-3/7 activity. Cells not treated with cisplatin, i.e., those grown in medium only (black dots) were assigned 0% caspase-3/7 activity. Each compound was added to a final concentration of 8 µM in the presence of 50 µM cisplatin (cyan dots). The cell-based screen mean Z′ was 0.75, the signal window was 12, and the signal fold change was 4.9. […] The caspase-3/7 IC50 activity and structure are indicated for each compound. Error bars: SEM. […] Phalloidin labels the HCs. (I–K) OHC survival (percentage; mean ± SEM) after treatment with various concentrations of compounds and/or cisplatin (CIS). The number of cochlear explants analyzed is indicated in each bar. *, P < 0.05 and **, P < 0.01 by one-way ANOVA followed by a Bonferroni comparison. We identified 177 hits that reduced cisplatin-induced caspase-3/7 activity by 60% or more. These compounds were further validated and characterized by dose-responsive analysis for potency and toxicity in HEI-OC1 cells; toxicity was assessed by a cell viability assay (CellTiter-Glo) with the test compounds alone (Fig. 1, B–D; and Fig. S1, E–K). The top 10 hits in this screen (with IC50 values in the HEI-OC1 cells of 0.04–6.2 µM) and their protective properties, as investigated in this study, are summarized in Table S1. The FDA has approved three of the compounds (leflunomide, [compound left out], and olsalazine sodium) for treating other medical conditions.

Row | SMILES | CC50 at 22 h
1 | CC[C@H](CO)Nc1nc(NCc2ccccc2O)c2ncn(C(C)C)c2n1 [Olomoucine II] | > 40 µM
2 | Cc1oncc1C(=O)Nc1ccc(C(F)(F)F)cc1 [Leflunomide] | > 40 µM
3 | O=c1cc(CN2CCOCC2)occ1OCCCCCSc1ccnc2cc(C(F)(F)F)ccc12 [EHT1864] | > 20 µM
4 | O=C(O)c1cc(/N=N/c2ccc(O)c(C(=O)O)c2)ccc1O [Olsalazine sodium] | > 40 µM
5 | CCOc1cc2ncc(C#N)c(Nc3ccc(F)c(Cl)c3)c2cc1NC(=O)/C=C/CN(C)C [Pelitinib] | > 40 µM
6 | CCCCCC[C@H]1C(=O)O[C@H](C)[C@H](NC(=O)c2cccc(NC=O)c2O)C(=O)O[C@@H](C)[C@@H]1OC(=O)CC(C)C [Antimycin A] | > 10 µM
7 | O=C1Cc2c([nH]c3ccc(Br)cc23)-c2ccccc2N1 [kenpaullone] | > 40 µM
8 | NS(=O)(=O)c1ccc(N=Nc2c(O)[nH]c3ccc(Br)cc23)cc1 [CDK2 inhibitor II] | > 40 µM

Target: CDK2 (Mus musculus, UniProt P97377)
Assay: immunoprecipitated CDK2 kinase assay, […]histone H1 substrate; cisplatin-treated cells ([…] from untreated cells)
Assay type: biochemical
Settings: not given

Row | IC50 | SMILES
9 | 1.7 ± 0.9 µM | O=C1Cc2c([nH]c3ccc(Br)cc23)-c2ccccc2N1 [kenpaullone]
